Results: ChEMBL document CHEMBL1201862, “PubChem BioAssay data set” (2004)
Activity calls are given as the source filed them.

What was measured:
[1] = biological target: Beta-galactosidase (Escherichia coli, UniProt Q8VNN2); assay: PubChem AID 485352; assay type: functional
[2] = biological target: T1, Type-1 angiotensin II receptor (Homo sapiens, UniProt P30556); assay: AT1 receptor antagonists, dose response, selectivity assay for APJ receptor antagonist project, cell-based, uHTS hits (AID 463214); assay type: functional;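 also: antagonist potency against angiotensin II stimulated AT1 response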
T1 sequence (P30556 whole entry): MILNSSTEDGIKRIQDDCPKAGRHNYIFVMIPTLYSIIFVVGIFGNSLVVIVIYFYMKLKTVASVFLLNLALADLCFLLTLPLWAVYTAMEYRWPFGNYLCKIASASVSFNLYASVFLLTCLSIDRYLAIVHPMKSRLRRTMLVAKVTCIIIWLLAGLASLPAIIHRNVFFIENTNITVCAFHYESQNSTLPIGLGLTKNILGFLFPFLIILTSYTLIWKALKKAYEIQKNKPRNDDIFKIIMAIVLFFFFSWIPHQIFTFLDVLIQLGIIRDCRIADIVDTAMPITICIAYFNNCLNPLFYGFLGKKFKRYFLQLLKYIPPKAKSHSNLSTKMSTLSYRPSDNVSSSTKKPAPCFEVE

[3] = biological target: T2, Nuclear receptor subfamily 0 group B member 1 (Homo sapiens, UniProt P51843); assay: Luminescence-based cell-based high throughput dose response assay for inhibitors of the orphan nuclear receptor subfamily 0, group B, member 1 (DAX1; NR0B1). [Related pubchem assays (depositor defined):AID504766, AID504790]; assay type: functional
T2 sequence (P51843 whole entry): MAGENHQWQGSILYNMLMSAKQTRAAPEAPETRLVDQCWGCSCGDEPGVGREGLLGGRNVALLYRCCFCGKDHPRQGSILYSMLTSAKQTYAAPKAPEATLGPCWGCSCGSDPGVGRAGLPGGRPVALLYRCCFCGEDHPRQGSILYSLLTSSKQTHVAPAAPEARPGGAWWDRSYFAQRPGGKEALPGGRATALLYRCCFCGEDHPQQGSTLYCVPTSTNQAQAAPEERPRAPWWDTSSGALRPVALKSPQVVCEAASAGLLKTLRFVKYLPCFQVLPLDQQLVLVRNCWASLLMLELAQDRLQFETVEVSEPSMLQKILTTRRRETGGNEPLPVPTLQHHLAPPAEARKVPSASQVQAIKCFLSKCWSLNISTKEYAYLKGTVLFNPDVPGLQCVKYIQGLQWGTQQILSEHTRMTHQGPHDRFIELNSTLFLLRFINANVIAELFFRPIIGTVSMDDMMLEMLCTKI

[4] = tested on: HEK293; assay: cells; assay type: functional, cell-based; settings: Homo sapiens
[5] = Luminescence Cell-Based Dose Confirmation HTS to Identify Activators of 5'UTR Stem-Loop Driven Alpha-Synuclein mRNA Translation in H4 Neuroglioblastoma Cells. [Related pubchem assays: 1829 (Project Summary), 1814 (Primary HTS)]; assay type: functional
[6] = Luminescence Cell-Based Dose Response HTS to Identify Activators of Luciferase Translation or Activity in H4 […] Cells. [Related pubchem assays: 1829 (Project Summary), 1814 (Primary HTS)]; assay type: functional
[7] = tested on: H4; assay: Luminescence Cell-Based Dose Response HTS to Identify Activators of 5'UTR Stem-Loop Driven Prion Protein mRNA Translation in H4 Neuroglioblastoma Cells. [Related pubchem assays: 1829 (Project Summary), 1814 (Primary HTS)]; assay type: functional; settings: Homo sapiens
[8] = HepG2 cell cytotoxicity, dose response, cytotoxicity control for Shn3 inhibitor project, CellTiter-Glo, cherry-picked (AID 624134); assay type: functional, cell-based
[9] = tested on: Vero; assay: cells; assay type: functional; settings: Chlorocebus sabaeus
[10] = tested on: HEK293; assay: inhibitors of LMP1-driven NF-kB reporter, dose response, cell-based, HEK293, luciferase, cherry-pick (AID 588343); assay type: functional; settings: Homo sapiens
[11] = control 3'UTR Renilla luciferase suppression, dose response, counter-screen for Shn3 inhibitor project, cell-based, Clone20-Shn3RL, cherry-picked (AID 624133); assay type: functional
[12] = Shn3 3'UTR reporter inhibitors, dose response, cell-based, Clone20 osteoblasts, firefly luciferase, cherry-picked (AID 624132); assay type: functional;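 also: firefly luciferase luminescence from reporter carrying the Shn3 3'UTR in osteoblasts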
[13] = tested on: Vero; assay: cells; assay type: functional, cell-based; settings: Chlorocebus sabaeus
[14] = biological target: T3, Heat shock factor protein 1 (Mus musculus, UniProt P38532); assay: inhibition of MG132-induced HSE-luciferase signal, confirmation, cell-based, NIH3T3, luminescence, dose retest (AID 2382); assay type: functional;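 also: NIH3T3 fibroblasts with HSF1-driven luciferase reporter stressed by proteasome inhibitor MG132; luminescence from HSF1-driven luciferase expression after 8 hours of MG132 stress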
T3 sequence (P38532 whole entry): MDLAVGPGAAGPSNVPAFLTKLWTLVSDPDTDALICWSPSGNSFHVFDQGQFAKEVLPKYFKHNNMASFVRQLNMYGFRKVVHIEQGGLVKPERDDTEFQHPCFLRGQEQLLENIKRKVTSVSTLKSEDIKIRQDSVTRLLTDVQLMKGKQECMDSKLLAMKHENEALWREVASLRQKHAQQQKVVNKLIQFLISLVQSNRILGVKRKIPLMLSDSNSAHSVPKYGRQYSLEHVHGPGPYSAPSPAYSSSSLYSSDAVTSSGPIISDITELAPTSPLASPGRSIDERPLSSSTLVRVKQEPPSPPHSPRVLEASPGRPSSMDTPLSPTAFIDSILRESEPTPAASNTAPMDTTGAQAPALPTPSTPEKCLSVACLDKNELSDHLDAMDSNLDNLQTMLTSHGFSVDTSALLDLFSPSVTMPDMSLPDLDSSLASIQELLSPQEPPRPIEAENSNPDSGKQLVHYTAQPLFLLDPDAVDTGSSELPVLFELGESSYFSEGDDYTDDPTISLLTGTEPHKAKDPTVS

[15] = microbe, parasite or virus in culture; assay type: functional; settings: Mycobacterium tuberculosis
[16] = biological target: T4, Protein RecA (Mycobacterium tuberculosis, UniProt P9WHJ3); assay: Fluorescence Cell-Free Homogeneous Dose Retest to Identify Inhibitors of RecA-Intein Splicing Activity. [Related pubchem assays (depositor defined):AID2097, AID2223, AID489010, AID492950]; assay type: functional
T4 sequence (P9WHJ3 whole entry): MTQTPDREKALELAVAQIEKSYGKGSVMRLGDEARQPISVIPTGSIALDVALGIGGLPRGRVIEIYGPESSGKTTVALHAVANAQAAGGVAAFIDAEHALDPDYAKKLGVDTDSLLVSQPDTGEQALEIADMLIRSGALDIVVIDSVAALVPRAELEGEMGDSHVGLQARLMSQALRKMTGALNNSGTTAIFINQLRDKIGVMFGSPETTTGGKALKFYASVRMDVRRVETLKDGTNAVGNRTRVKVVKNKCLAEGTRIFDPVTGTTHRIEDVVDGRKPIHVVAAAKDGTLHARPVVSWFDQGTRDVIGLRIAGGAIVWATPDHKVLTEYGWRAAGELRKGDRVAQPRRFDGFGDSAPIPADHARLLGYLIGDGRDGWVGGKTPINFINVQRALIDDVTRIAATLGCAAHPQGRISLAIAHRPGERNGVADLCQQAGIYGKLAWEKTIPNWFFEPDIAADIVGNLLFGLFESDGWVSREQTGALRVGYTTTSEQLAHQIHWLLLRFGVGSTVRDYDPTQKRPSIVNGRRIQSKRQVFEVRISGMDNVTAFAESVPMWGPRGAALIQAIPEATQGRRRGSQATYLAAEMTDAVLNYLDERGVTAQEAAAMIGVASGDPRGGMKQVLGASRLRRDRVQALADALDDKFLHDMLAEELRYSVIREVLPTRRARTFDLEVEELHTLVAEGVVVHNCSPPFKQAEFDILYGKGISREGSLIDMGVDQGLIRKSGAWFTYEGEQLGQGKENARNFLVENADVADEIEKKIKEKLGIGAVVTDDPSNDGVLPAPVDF

[17] = biological target: T5, Replicative DNA helicase DnaB (Mycobacterium tuberculosis, UniProt P9WMR3); assay: DnaB intein splicing inhibitors, dose response, biochemical, cell-free fluorescence (AID 449749); assay type: functional
T5 sequence (P9WMR3 whole entry): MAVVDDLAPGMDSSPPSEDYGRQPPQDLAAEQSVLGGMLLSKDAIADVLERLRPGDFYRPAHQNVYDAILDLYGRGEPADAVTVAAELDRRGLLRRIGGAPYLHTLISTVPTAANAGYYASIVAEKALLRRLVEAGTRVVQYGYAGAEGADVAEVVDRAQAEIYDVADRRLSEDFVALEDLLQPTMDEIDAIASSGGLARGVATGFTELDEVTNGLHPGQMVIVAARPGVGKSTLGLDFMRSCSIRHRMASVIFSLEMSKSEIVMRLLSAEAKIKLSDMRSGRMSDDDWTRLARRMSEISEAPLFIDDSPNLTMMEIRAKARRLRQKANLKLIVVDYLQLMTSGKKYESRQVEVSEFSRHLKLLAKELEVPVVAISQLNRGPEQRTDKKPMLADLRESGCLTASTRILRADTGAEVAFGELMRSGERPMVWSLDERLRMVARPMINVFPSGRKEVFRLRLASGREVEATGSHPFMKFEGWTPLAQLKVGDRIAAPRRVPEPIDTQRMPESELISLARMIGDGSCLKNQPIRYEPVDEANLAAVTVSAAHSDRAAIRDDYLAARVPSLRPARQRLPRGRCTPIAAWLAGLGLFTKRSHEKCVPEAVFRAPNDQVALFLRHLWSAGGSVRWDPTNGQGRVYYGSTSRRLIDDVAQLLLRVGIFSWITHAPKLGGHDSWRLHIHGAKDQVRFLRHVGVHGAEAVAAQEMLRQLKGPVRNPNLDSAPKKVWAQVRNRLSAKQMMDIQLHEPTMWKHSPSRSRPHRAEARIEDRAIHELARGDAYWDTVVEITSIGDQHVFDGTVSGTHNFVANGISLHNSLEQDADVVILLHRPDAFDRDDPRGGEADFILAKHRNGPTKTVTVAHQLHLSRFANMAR

[18] = tested on: Jurkat; assay: antigen receptor-induced NF-kB inhibitors, dose response, Jurkat, luciferase reporter, luminescence, B- and T-cell (AID 489004); assay type: functional, cell-based; settings: Homo sapiens;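 also: NF-kB luciferase reporter Jurkat cells stimulated with PMA plus ionomycin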
[19] = cytotoxicity in HEK-293T NF-kB-Luc cells, dose response, cytotoxicity control for B/T-cell NF-kB inhibitor project, cell-based, uHTS hits (AID 489019); assay type: functional;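 also: IC50 reflects cytotoxicity as loss of cell viability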

Chain of Beta-galactosidase (Q8VNN2 whole entry): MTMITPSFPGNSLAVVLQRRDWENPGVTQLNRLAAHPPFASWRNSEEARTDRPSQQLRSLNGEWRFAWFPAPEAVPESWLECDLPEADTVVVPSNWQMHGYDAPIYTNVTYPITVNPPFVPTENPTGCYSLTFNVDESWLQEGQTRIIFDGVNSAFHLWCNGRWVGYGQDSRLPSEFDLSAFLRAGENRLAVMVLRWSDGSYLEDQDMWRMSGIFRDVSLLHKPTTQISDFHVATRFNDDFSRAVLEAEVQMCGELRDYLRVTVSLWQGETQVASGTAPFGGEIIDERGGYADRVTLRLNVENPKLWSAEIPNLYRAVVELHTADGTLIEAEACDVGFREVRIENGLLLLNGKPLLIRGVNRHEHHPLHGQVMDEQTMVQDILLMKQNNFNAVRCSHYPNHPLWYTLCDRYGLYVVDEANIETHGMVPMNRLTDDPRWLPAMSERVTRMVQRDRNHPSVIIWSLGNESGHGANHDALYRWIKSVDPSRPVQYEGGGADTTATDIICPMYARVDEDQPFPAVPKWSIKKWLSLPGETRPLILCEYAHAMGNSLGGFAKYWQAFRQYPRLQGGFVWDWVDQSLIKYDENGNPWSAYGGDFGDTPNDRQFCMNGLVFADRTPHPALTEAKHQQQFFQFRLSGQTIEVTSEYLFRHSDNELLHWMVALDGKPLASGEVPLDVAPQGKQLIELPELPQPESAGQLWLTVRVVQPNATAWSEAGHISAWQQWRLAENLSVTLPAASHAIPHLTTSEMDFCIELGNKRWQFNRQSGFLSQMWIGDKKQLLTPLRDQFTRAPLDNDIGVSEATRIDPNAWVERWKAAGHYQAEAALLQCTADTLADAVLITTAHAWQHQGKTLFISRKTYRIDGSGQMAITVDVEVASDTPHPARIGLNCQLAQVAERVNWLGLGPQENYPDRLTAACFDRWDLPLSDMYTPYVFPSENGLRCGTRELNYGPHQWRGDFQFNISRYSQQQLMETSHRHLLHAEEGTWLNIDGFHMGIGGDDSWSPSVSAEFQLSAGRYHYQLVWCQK

Compound: O=C(Cc1ccc(F)cc1)OCC(=O)c1cc2ccccc2o1
- EC50 [1]: > 40 µM (inactive)
- IC50 [2]: 23.9 µM (not active)

Compound: CS(=O)(=O)N1CCc2cc(C(=O)Nc3ccccc3Cl)ccc21
- IC50 [3]: > 67.5 µM (inactive)
- IC50 [4]: > 67.5 µM (inactive)

Compound: CN1CCN(C(=S)c2ccc(-c3cccc([N+](=O)[O-])c3)o2)CC1
- EC50 [5]: 0.141 µM (active)
- IC50 [3]: > 67.6 µM (inactive)
- EC50 [6]: 0.117 µM (active)
- EC50 [7]: 2.4 µM (active)
- IC50 [4]: > 67.6 µM (inactive)

Compound: COc1ccc(C(=O)NC2CCCc3c2cnn3-c2cccc(C)c2C)c(OC)n1 (configuration not stated)
- AC50 [8]: > 70 µM (inactive)
- CC50 [9]: > 25 µM (active)
- AC50 [10]: 17.5 µM (active)
- AC50 [11]: 3.27 µM (active)
- AC50 [12]: 1.96 µM (active)
- IC50 [13]: 3.8 µM (active)

Compound: O=C(CCl)N1CCCC1c1ccc2c(c1)OCCO2 (configuration not stated)
- EC50 [5]: 29.6 µM (active)
- EC50 [14]: 1.14 µM (active)
- CC50 [15]: 11.6 µM (active)
- EC50 [16]: > 380 µM (inconclusive)
- AC50 [17]: 12.2 µM (active)
- EC50 [6]: 14 µM (active)
- IC50 [18]: 1.39 µM (active)
- EC50 [7]: > 120 µM (not active)
- IC50 [19]: > 80 µM (inactive)

Compound: Nc1c(-c2ccc(Cl)cc2)cnc2c(-c3ccccc3)cnn12
- IC50 [3]: > 67.5 µM (inactive)
- IC50 [4]: > 67.5 µM (inactive)

Compound: O=C1Nc2ccccc2C1=Nc1ccc(F)cc1
- EC50 [1]: > 40 µM (inactive)
- IC50 [2]: 24.4 µM (not active)

Compound: c1ccc2c(c1)ccc1[nH]c3c(c12)CCCC3
- CC50 [9]: > 25 µM (active)
- IC50 [13]: 3.39 µM (active)

Compound: O=C(C=Cc1ccccc1)c1cnc2ccccc2c1O
- CC50 [9]: 11 µM (active)
- IC50 [13]: > 25 µM (active)
